{
  "source": "patent US20100197018A1",
  "about": "“USE OF SUBSTRATES AS PHARMACOLOGICAL CHAPERONES” (AMICUS THERAPEUTICS, INC., priority 2007, published 2010)",
  "origin": "cited, not measured here",
  "key": {"iduronate-2-sulfatase": {"biological_target": "T1, iduronate-2-sulfatase (Homo sapiens, UniProt P22304)", "T1 sequence (P22304 34-550)": "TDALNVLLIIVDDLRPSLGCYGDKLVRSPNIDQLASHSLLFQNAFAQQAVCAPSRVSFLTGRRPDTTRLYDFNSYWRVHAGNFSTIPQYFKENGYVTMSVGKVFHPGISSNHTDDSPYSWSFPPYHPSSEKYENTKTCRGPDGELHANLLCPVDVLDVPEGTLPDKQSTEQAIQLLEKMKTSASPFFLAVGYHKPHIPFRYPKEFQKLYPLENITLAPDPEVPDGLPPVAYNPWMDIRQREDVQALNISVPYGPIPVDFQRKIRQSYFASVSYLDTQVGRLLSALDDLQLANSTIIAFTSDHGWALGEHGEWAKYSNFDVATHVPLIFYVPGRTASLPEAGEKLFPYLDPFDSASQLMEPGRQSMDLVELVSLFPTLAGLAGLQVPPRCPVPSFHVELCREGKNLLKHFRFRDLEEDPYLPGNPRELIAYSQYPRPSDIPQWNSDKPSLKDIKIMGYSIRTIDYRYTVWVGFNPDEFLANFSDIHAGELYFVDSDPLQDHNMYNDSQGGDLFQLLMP", "settings": "for pH optimum: Table 4, cells marked * (not optimum pH) left out; for Relative catalytic efficiency: IdoA2S-anM = 1.0"}, "[1]": {"biological_target": "T2, N-acetyl-glucosamine-6-sulfate sulfatase (6S) Form A (Homo sapiens, UniProt P15586)", "T2 sequence (P15586 37-552)": "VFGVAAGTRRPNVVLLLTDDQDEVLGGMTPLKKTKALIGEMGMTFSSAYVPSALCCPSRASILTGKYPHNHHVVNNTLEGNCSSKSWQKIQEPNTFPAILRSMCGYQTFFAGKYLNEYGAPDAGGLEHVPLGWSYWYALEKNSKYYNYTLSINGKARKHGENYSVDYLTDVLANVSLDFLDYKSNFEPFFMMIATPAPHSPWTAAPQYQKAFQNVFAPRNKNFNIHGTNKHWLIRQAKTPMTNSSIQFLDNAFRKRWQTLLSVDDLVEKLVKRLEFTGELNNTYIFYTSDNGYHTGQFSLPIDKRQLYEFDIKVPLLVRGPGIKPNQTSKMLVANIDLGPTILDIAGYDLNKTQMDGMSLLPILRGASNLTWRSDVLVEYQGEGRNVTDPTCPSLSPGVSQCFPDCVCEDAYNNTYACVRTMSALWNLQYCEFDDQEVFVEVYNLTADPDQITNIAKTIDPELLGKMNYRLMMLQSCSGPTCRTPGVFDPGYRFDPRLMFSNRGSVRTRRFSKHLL", "settings": "for kcat. (turnover number) / Relative catalytic efficiency* / Km: Form A; for Relative catalytic efficiency*: kcat./Km calculated relative to a value for GlcNAc6S = 1; for Km: read-out: Km; for pH optimum: Table 6"}, "[2]": {"settings": "at the optimum pH of the substrate analog"}, "[3]": {"settings": "not optimum pH (*): IdoA2S-anM6S at pH 5.0, IdoA2S-anT4S at pH 4.0"}},
  "note": "Where two headings read alike, the source gives them in different places.",
  "data": [
    {"compound": "O=C(O)[C@@H]1O[C@@H](O[C@H]2[C@H](O)[C@@H](CO)O[C@@H]2CO)[C@H](OS(=O)(=O)O)[C@@H](O)[C@@H]1O", "note": "[IdoA2S-anM, L-O-(α-iduronic acid 2-sulphate-(1-4)-D-β-2,5-anhydro-mannitol]", "values": [
      {"measurement": "pH optimum", "setting": "iduronate-2-sulfatase", "value": 5.4},
      {"measurement": "Km", "setting": "iduronate-2-sulfatase; [2]", "value": 19.2, "unit": "µM"},
      {"measurement": "kcat. (turnover no.)", "setting": "iduronate-2-sulfatase; [2]", "value": "161 mol/min per mol of enzyme"},
      {"measurement": "Relative catalytic efficiency", "setting": "iduronate-2-sulfatase; [2]", "value": 1.0}
    ]},
    {"compound": "manganese chloride", "values": [
      {"measurement": "effect of salt on activity of the enzyme against the substrates", "setting": "iduronate-2-sulfatase", "value": "no effect or increase the activity"}
    ]},
    {"compound": "O=P(O)(O)O", "note": "[sodium phosphate]", "values": [
      {"measurement": "effect of salt on activity of the enzyme against the substrates", "setting": "iduronate-2-sulfatase", "value": "inhibitory"}
    ]},
    {"compound": "O-(α-L-iduronic acid 2-sulphate)-(1-4)-D-β-(α-2-sulphaminoglucosamine 6 sulphate)-(1-4)-L-O-(α-iduronic acid 2-sulphate)-(1-4)-D-O-2,5-anhydro[1-^3H]mannitol 6-sulphate [IdoA2S-GlcNS6S-IdoA2S-anM6S]", "values": [
      {"measurement": "pH range of activity", "setting": "iduronate-2-sulfatase", "value": "5.0-6.5"},
      {"measurement": "pH optimum", "setting": "iduronate-2-sulfatase", "value": 5.7},
      {"measurement": "activity as % of maximal activity", "setting": "iduronate-2-sulfatase; at pH 6.3", "value": "~90", "unit": "%"},
      {"measurement": "Km", "setting": "iduronate-2-sulfatase; [2]", "value": 1.4, "unit": "µM"},
      {"measurement": "kcat. (turnover no.)", "setting": "iduronate-2-sulfatase; [2]", "value": "2177 mol/min per mol of enzyme"},
      {"measurement": "Relative catalytic efficiency", "setting": "iduronate-2-sulfatase; [2]", "value": 186.7},
      {"measurement": "pH of maximal activity", "setting": "iduronate-2-sulfatase; text b65, highly sulfated tetrasaccharide substrates", "value": 5.7}
    ]},
    {"compound": "[Cl-].[Cl-].[Mg+2]", "note": "[magnesium chloride]", "values": [
      {"measurement": "effect of salt on activity of the enzyme against the substrates", "setting": "iduronate-2-sulfatase", "value": "no effect or increase the activity"}
    ]},
    {"compound": "CC(=O)N[C@H]1[C@@H](O[C@H]2[C@H](O)[C@@H](OS(=O)(=O)O)[C@H](O[C@H]3[C@H](O)[C@@H](CO)O[C@@H]3COS(=O)(=O)O)O[C@H]2C(=O)O)O[C@H](COS(=O)(=O)O)[C@@H](O)[C@@H]1O", "note": "[GlcNAc6S-IdoA2S-anM6S, O-(α-N-acetylglucosamine 6-sulphate)-(1-4)-L-O-(α-iduronic acid 2-sulphate)-(1-4)-D-O-2,5-anhydro-mannitol 6 sulphate]", "values": [
      {"measurement": "kcat. (turnover number)", "setting": "[1]", "value": "7.08 mol/min per mol of enzyme"},
      {"measurement": "Relative catalytic efficiency*", "setting": "[1]", "value": 402},
      {"measurement": "Km", "setting": "[1]", "value": 0.76, "unit": "µM"},
      {"measurement": "pH optimum", "setting": "[1]", "value": 4.3}
    ]},
    {"compound": "[Cl-].[Na+]", "note": "[sodium chloride]", "values": [
      {"measurement": "effect of salt on activity of the enzyme against the substrates", "setting": "iduronate-2-sulfatase", "value": "inhibitory"}
    ]},
    {"compound": "L-O-(α-iduronic acid 2 sulphate)-(1-4)-D-β-(α-2-sulphaminoglucosamine)-(1-4)-O-(β-D-glucuronic or α-L-iduronic acid)-(1-4) D-O(α-N-acetylglucosamine-(1-3)-D-O-]-gulonic acid [IdoA2S-GlcNS-UA-GlcNAc-GlcOA]", "values": [
      {"measurement": "pH optimum", "setting": "iduronate-2-sulfatase", "value": 5.4},
      {"measurement": "Km", "setting": "iduronate-2-sulfatase; [2]", "value": 1.9, "unit": "µM"},
      {"measurement": "kcat. (turnover no.)", "setting": "iduronate-2-sulfatase; [2]", "value": "756 mol/min per mol of enzyme"},
      {"measurement": "Relative catalytic efficiency", "setting": "iduronate-2-sulfatase; [2]", "value": 47.5}
    ]},
    {"compound": "O=C(O)[C@@H]1O[C@@H](O[C@H]2[C@H](O)[C@@H](CO)O[C@@H]2COS(=O)(=O)O)[C@H](OS(=O)(=O)O)[C@@H](O)[C@@H]1O", "note": "[IdoA2S-anM6S, L-O-(α-iduronic acid 2-sulphate)-(1-4)-D-β-2,5-anhydro-mannitol 6-sulphate]", "values": [
      {"measurement": "pH optimum", "setting": "iduronate-2-sulfatase", "value": 4.0},
      {"measurement": "Km", "setting": "iduronate-2-sulfatase; [2]", "value": 4, "unit": "µM"},
      {"measurement": "kcat. (turnover no.)", "setting": "iduronate-2-sulfatase; [2]", "value": "2114 mol/min per mol of enzyme"},
      {"measurement": "Relative catalytic efficiency", "setting": "iduronate-2-sulfatase; [2]", "value": 63.0},
      {"measurement": "increase in binding affinity (Km)", "setting": "iduronate-2-sulfatase; compared with IdoA2S-anM", "value": 5, "unit": "fold"},
      {"measurement": "increase in turnover (Kcat)", "setting": "iduronate-2-sulfatase; compared with IdoA2S-anM", "value": 13, "unit": "fold"},
      {"measurement": "increase in catalytic activity", "setting": "iduronate-2-sulfatase; compared with IdoA2S-anM (addition of a 6-sulfate ester group)", "value": 63, "unit": "fold"},
      {"measurement": "Km", "setting": "iduronate-2-sulfatase; [3]", "value": 2.5, "unit": "µM"},
      {"measurement": "kcat. (turnover no.)", "setting": "iduronate-2-sulfatase; [3]", "value": "905 mol/min per mol of enzyme"},
      {"measurement": "Relative catalytic efficiency", "setting": "iduronate-2-sulfatase; [3]", "value": 43.1}
    ]},
    {"compound": "O-(α-L-idopyranosyluronic acid 2-sulfate)-(1-3)-2,5-anhydro-D-talitol 4-sulfate [IdoA2S-anT4S]", "values": [
      {"measurement": "pH optimum", "setting": "iduronate-2-sulfatase", "value": 5.0},
      {"measurement": "Km", "setting": "iduronate-2-sulfatase; [2]", "value": 0.7, "unit": "µM"},
      {"measurement": "kcat. (turnover no.)", "setting": "iduronate-2-sulfatase; [2]", "value": "507 mol/min per mol of enzyme"},
      {"measurement": "Relative catalytic efficiency", "setting": "iduronate-2-sulfatase; [2]", "value": 86.2},
      {"measurement": "Km", "setting": "iduronate-2-sulfatase; [3]", "value": 1.1, "unit": "µM"},
      {"measurement": "kcat. (turnover no.)", "setting": "iduronate-2-sulfatase; [3]", "value": "270 mol/min per mol of enzyme"},
      {"measurement": "Relative catalytic efficiency", "setting": "iduronate-2-sulfatase; [3]", "value": 29.3}
    ]},
    {"compound": "N[C@H]1[C@@H](O[C@H]2[C@H](O)[C@@H](OS(=O)(=O)O)[C@H](O[C@H]3[C@H](O)[C@@H](CO)O[C@@H]3COS(=O)(=O)O)O[C@H]2C(=O)O)O[C@H](COS(=O)(=O)O)[C@@H](O)[C@@H]1O", "note": "[GlcNH6S-IdoA2S-anM6S, O-α-glucosamine 6-sulphate)-(1-4)-L-O-(α-iduronic acid 2-sulphate)-(1-4)-D-β-2,5-anhydro-mannitol 6-sulphate]", "values": [
      {"measurement": "kcat. (turnover number)", "setting": "[1]", "value": "0.11 mol/min per mol of enzyme"},
      {"measurement": "Relative catalytic efficiency*", "setting": "[1]", "value": 14},
      {"measurement": "Km", "setting": "[1]", "value": 0.35, "unit": "µM"},
      {"measurement": "pH optimum", "setting": "[1]", "value": 4.3}
    ]}
  ]
}
